What all share (assay type): cell-based, human
For experiment [1], the system named is pan-cadherin. The experiment can be described thus: Western blot for pan-cadherin, M14. The procedure:
(§1) After treatment of M14 and SK-MEL-5 cells with different concentrations of Dxr2-017 or vehicle for 3 or 8 days, as denoted, cell images were captured at 20X in a transmitted light channel using the EVOS™ M5000 Imaging System (Invitrogen (Waltham, MA, USA)). Western blots were performed as previously described by us. Briefly, cells were collected and lysed using RIPA lysis buffer (25 mM Tris-HCl pH 7.6, 150 mM NaCl, 1% NP-40, 1% sodium deoxycholate, and 0.1% SDS; Thermo Scientific^TM (Waltham, MA, USA), #89900), supplemented with protease and phosphatase inhibitor cocktail (Thermo Scientific^TM, #78442) and 1 mM of PMSF. Resultant Western blots were probed using antibodies against cleaved caspase 3 (Cell Signaling Technology (Danvers, MA, USA), #9664), pan-cadherin (Cell Signaling Technology, #4068), and β-actin (Santa Cruz (Santa Cruz, CA, USA), #sc-47778).
These findings led us to compare cleaved caspase 3 between adherent cells and floating cells. Cleaved caspase 3 is an indicator of programmed cell death, and its triggering by loss of cell attachment is an established means of detecting anoikis. Adherent cells were prepared as above. […]

The subject of experiment [2] is NCI-60 cell lines. The experiment can be described thus: NCI-60 cell line screen. As to conditions: 48 h at 10 µM. The procedure: The above findings support the importance of Dxr2 and FolC2 sites, and of Dxr2-017 and FolC2-001 compounds, respectively. The NCI-60 cell line screen evaluates compound growth inhibition and cell toxicity in a highly standardized manner across 60 different cell lines. Dxr2-017 and FolC2-001 were evaluated in this assay (Figure S6). NCI-60 screens evaluate cells treated for 48 h at 10 µM with a given compound. […] Of high interest, in the NCI-60 screen, Dxr2-017 had relatively high activity against melanoma cell lines, inducing cell death in five cell lines ranging from 25% to 65%, and inhibiting growth in four cell lines ranging from 76% to 96%. Its impact on cell death represented the most striking relative difference in response across cell lines.

The test system of experiment [3] is breast, prostate, colon, or lung cancer cell lines. The experiment is described as follows: Eight-day colony formation assays, summary across the cancer cell line panel. The conditions noted are these: 8 days. How it is done: Initial colony formation screening assays were conducted on all acquired compounds and examined at five different compound concentrations. Those meeting efficacy criteria underwent a second-level screen examining nine different compound concentrations. Eight-day colony formation assays of cancer cells were performed as described by us. Briefly, 0.5–1.0 × 10^3 cells were seeded into each well of a 12-well plate. Twenty-four hours later, the compound was added at the following final concentrations: 0 (DMSO-only control), 0.017, 0.12, 0.82, 5.7, and 40 µM. For each concentration, there were N = 2 replicates, i.e., 2 wells. Eight days later, plates were stained with trypan blue, visualized under light microscopy, and groups of three or more cells were scored as colonies. The mean number of colonies was then determined and expressed as the percentage of controls. Second-level screens were performed on compounds inhibiting colony formation by greater than 50% at 40 µM in at least two cell lines. Second-level assays used the following final concentrations of compound: 0 (DMSO only), 0.0061, 0.018, 0.05, 0.16, 0.49, 1.48, 4.44, 13.33, and 40 µM. All compounds were stored under desiccated conditions in a sealed container at minus 20 °C upon arrival. One day prior to use, they were dissolved in DMSO, stored at minus 20 °C as stock solutions, thawed just prior to use, and not reused.
Human hematopoietic stem cell trilineage colony formation assays were performed as previously described by us. Briefly, human cord blood CD34+ cells (catalog #: 70008.5) were purchased from StemCell Technology Inc. and seeded at 1 × 10^4 cells per 35 mm dish. Cells were cultured in MethoCult™ Express (StemCell Technologies, Inc. (Vancouver, BC, Canada)) semisolid media, per the manufacturer’s instructions, in the presence of compound or vehicle (for controls). Compounds were added at final concentrations matching those used in the initial growth assay screens. At eight days, colonies (i.e., groups of ≥10 cells) were counted. At fourteen days, individual colonies of erythroid burst-forming units (BFU-E), colony-forming unit granulocyte–macrophage (CFU-GM), and colony-forming unit granulocyte, erythrocyte, monocyte, and megakaryocyte (CFU-GEMM) were identified based on the manufacturers’ morphologic characterization criteria. Assays were run in replicates of N = 2, and some were run in replicates of N = 4, as denoted. The mean number of colonies was then determined and expressed as the percentage of controls. The effect of each compound on inhibiting the growth of cancer cells relative to its toxic effects on normal bone marrow was evaluated. This was carried out by comparing colonies at 8 days for each cancer cell line to that of bone marrow. This information was used to calculate the efficacy ratio, as follows: efficacy ratio = (percent of remaining cancer cell colonies)/(percent of remaining bone marrow colonies). This was performed for all compounds at 40 µM and for selected compounds at 5.7 µM, as denoted. For compounds nominated for second-level screens, bone marrow colony formation assays were also repeated. Compounds were added at final concentrations matching those used in the initial screens.
We sought to identify compounds that would inhibit the growth of cancer cells, but that also did so selectively. Inhibition of cancer cell growth is a highly sought after attribute of anticancer agents. This was assessed by measuring the ability of a compound to inhibit cell growth in eight-day colony formation assays and examining concentrations ranging from 0.017 to 40 µM. Breast, colon, lung, and prostate cancer are four of the most common types of cancer in the United States, are major causes of cancer cell death, and were examined. […]

Experiment [4] deals with cleaved caspase 3. The experiment is described as follows: Western blot for cleaved caspase 3, SK-MEL-5. The conditions noted are these: up to 20 µM, three days. How it is done:
as §1
We then assessed whether Dxr2-017 induced apoptosis. We treated M14 and SK-MEL-5 cells with Dxr2-017 for three days at concentrations of up 10 and 20 µM, respectively, and measured cleaved caspase 3 using Western blot. […] In this assay, cells were grown in six-well plates and washed prior to lysis, and thus only adherent cells remained. […] Adherent cells are spread out and fusiform shaped, while detached/floating cells are round, as previously reported by us. […]

Entries after “also recorded” stand apart in the source; their conditions may differ.

Turning to `c1ccc2sc(-c3ccc(CNc4ccc5nnnn5n4)o3)nc2c1` [Dxr2-017], the cadherin expression result in experiment [1] was “decreased cadherin expression in a concentration-dependent manner”. Also, the “activity in the NCI-60 screen (in words)” value in experiment [2] is “activity against HT29, MDA-MB-231, and H226”. Further, the “efficacy ratio, mean ± SEM over cell lines with ratio below 0.5” value in experiment [3] (5.7 µM) stood at 0.25 ± 0.091. Moreover, in experiment [3] (40 µM), the “efficacy ratio, mean ± SEM over cell lines with ratio below 0.5” value is reported as 0.03 ± 0.01. Moreover, in experiment [4], the “cleaved caspase 3, adherent and floating cells combined” value is “clear formation was observed”; the “cleaved caspase 3, adherent cells only” value was “did not see any induction of cleaved caspase 3; also recorded: no formation of cleaved caspase 3”.

The record behind these values is PMC11429909, “Protein Structure Inspired Discovery of a Novel Inducer of Anoikis in Human Melanoma” (Cancers, 2024).
